According to ChEMBL document CHEMBL4359834 (J Med Chem, 2019):
Activity calls are given as the source filed them. No cut-off for these calls is given here.

What was measured:
[1] = Inhibition of Class 1 PI3K/mTOR in human A2058 cells assessed as reduction in Akt phosphorylation at Ser473 residue incubated for 1 hr by InCell Western assay; type: cell-based; conditions: A2058, 1 h
[2] = target: Phosphatidylinositol 4,5-bisphosphate 3-kinase catalytic subunit alpha isoform (Homo sapiens, UniProt P42336); assay: Displacement of Alexafluor labelled kinase tracer314 from recombinant N-terminal His6-tagged PI3K p110alpha (unknown origin) incubated for 1 hr by FRET-based LanthaScreen Eu kinase binding assay
Sequence of Phosphatidylinositol 4,5-bisphosphate 3-kinase catalytic subunit alpha isoform (P42336 whole entry, the tested form may be a part, canonical isoform): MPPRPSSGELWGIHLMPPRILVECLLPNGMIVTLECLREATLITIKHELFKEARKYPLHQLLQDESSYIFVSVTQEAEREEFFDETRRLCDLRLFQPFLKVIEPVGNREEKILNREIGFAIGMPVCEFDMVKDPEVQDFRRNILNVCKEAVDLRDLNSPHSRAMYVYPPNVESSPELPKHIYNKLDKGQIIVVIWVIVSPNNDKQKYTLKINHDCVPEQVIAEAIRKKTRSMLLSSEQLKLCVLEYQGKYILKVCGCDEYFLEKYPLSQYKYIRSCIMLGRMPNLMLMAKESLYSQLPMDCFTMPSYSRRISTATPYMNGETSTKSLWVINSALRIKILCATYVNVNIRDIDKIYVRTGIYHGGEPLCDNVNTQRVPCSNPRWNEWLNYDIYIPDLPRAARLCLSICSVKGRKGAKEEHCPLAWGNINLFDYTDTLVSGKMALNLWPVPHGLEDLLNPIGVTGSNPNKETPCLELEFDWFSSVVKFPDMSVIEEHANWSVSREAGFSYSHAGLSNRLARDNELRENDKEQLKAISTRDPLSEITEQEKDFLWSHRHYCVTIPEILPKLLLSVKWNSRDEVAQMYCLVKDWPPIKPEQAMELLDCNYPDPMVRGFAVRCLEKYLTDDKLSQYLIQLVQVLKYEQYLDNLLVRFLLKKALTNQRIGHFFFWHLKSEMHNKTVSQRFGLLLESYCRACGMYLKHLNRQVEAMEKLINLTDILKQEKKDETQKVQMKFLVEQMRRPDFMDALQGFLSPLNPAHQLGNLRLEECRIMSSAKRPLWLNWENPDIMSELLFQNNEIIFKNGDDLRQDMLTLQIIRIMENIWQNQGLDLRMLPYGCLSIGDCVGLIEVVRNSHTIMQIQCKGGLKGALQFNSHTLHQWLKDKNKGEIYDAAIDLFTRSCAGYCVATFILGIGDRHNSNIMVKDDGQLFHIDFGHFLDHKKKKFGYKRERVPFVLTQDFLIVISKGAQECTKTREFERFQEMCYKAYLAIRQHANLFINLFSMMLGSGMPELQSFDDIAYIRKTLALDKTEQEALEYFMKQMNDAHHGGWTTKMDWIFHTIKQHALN

[3] = target: Serine/threonine-protein kinase mTOR (Homo sapiens, UniProt P42345); assay: Displacement of Alexafluor labelled kinase tracer314 from recombinant human C-terminal GST-tagged mTOR (1360 to 2549 amino acids) expressed in insect cells incubated for 1 hr by FRET-based LanthaScreen Eu kinase binding assay
cells = conditions: Homo sapiens, A2058, 1 h
Description: Inhibition of Class 1 PI3K/mTOR in human A2058 cells assessed as reduction in S6 phosphorylation at Ser235/236 residue incubated for 1 hr by InCell Western assay

[4] = Intrinsic clearance in human hepatocytes assessed per 10^6 cells; type: ADME, cell-based, Hepatocyte; conditions: read-out: CLH
[5] = Intrinsic clearance in rat hepatocytes assessed per 10^6 cells; type: ADME, cell-based, Hepatocyte; conditions: read-out: CLH
[6] = Intrinsic clearance in dog hepatocytes assessed per 10^6 cells; type: ADME, cell-based, Canis lupus familiaris, Hepatocyte; conditions: read-out: CLH
[7] = Intrinsic clearance in mouse hepatocytes assessed per 10^6 cells; type: ADME, cell-based, Hepatocyte; conditions: read-out: CLH
[8] = Half-life clearance in human hepatocytes; type: ADME, cell-based, Hepatocyte
[9] = Half-life in rat hepatocytes; type: ADME, cell-based, Hepatocyte
[10] = Half-life in dog hepatocytes; type: ADME, cell-based, Canis lupus familiaris, Hepatocyte
[11] = Half-life in mouse hepatocytes; type: ADME, cell-based, Hepatocyte
A2058 = assay: Antiproliferative activity against human A2058 cells at 5 to 0.02 uM after 72 hrs by […] staining based assay; type: functional, cell-based
SK-OV-3 = assay: Antiproliferative activity against human SKOV3 cells at 5 to 0.02 uM after 72 hrs by […] staining based assay; type: functional, cell-based

SMILES | IC50 [1] [nM] | Ki [2] [nM] | Ki [3] [nM] | IC50 (cells) [nM] | further results
C[C@@H]1COC[C@@H](C)N1c1nc(-c2cnc(N)cc2C(F)(F)F)nc(N2[C@H](C)COC[C@H]2C)n1 | > 20000 | > 20000 | 1890 | 14500 | 
C[C@H]1COC[C@H](C)N1c1nc(-c2cnc(N)cc2C(F)(F)F)nc(N2CCOCC2)n1 | 100 | 15.2 | 59.2 | 126 | 
C[C@H]1COCCN1c1nc(-c2cnc(N)cc2C(F)(F)F)nc(N2CCOCC2)n1 | 196 | 8.3 | 25.5 | 89.8 | 
O=c1ccc2ccc(O)cc2o1 [UMBELLIFERONE] |  |  |  |  | hepatocyte CLint [4]: 65.5 µL/min/1e6 cells; hepatocyte CLint [5]: 124 µL/min/1e6 cells; hepatocyte CLint [6]: 138 µL/min/1e6 cells; hepatocyte CLint [7]: 116 µL/min/1e6 cells; half-life [8]: 21.1 min; half-life [9]: 11.1 min; half-life [10]: 10.2 min; half-life [11]: 11.9 min
C[C@H]1COCCN1c1cc(-c2cnc(N)nc2C(F)F)nc(N2CCOCC2)n1 | 99.6 | 2 | 192 | 387 | 
C[C@H]1COC[C@H](C)N1c1nc(-c2cnc(N)cc2C(F)(F)F)nc(N2[C@@H](C)COC[C@@H]2C)n1 | 610 | 37 | 265 | 531 | 
C[C@@H]1COC[C@@H](C)N1c1nc(-c2cnc(N)cc2C(F)(F)F)nc(N2CCOCC2)n1 | 435 | 88.9 | 64.5 | 457 | 
C[C@H]1COCCN1c1nc(-c2cnc(N)cc2C(F)F)cc(N2CCOCC2)n1 | 146 |  | 10 | 125 | 
Nc1cc(C(F)(F)F)c(-c2nc(N3CCOCC3)nc(N3CCOCC3)n2)cn1 |  |  |  |  | Activity (A2058): Active; Activity (SK-OV-3): Active
C[C@H]1COCCN1c1nc(-c2cnc(N)cc2C(F)(F)F)nc(N2CCOC[C@@H]2C)n1 | 248 | 6.8 | 137 | 283 | 
C[C@@H]1COCCN1c1nc(-c2cnc(N)cc2C(F)(F)F)nc(N2CCOCC2)n1 | 373 | 53.7 | 109 | 410 | 
C[C@H]1COCCN1c1nc(-c2cnc(N)nc2C(F)F)nc(N2CCOCC2)n1 | 32.4 |  | 10.6 | 63.9 | 
